Publication PMC9121888 (Pharmacology Research & Perspectives, 2022)
Read-outs that look alike come from different tables or passages of the source.

Experiments:
[1] = design: method as in PMID 29950814; details: cited from earlier work
[2] = Study 2 (NCT02608710) safety: adverse events, laboratory, vital signs, ECG; type: in vivo, human
Method: (§1) Study 2 was a Phase 1, randomized, open‐label study comprising of three parts. Parts 1 and 2 assessed the pharmacokinetics and pharmacodynamics of single and multiple doses of verinurad, respectively (Figure 1). Part 3 assessed the effect of food on the pharmacokinetics and pharmacodynamics of verinurad and is not reported further herein. In the single‐dose assessment, […] were randomized 1:1:1:1:1:1 into 1 of 6 treatment sequences with a single dose of 4.5, 6, or 12 mg verinurad, administered on days 1, 5, and 9 (Figure 1). In the multiple‐dose assessment, 8 participants received 12 mg verinurad QD on days 1 to 7.
(§2) Analysis of safety was based on adverse events (AEs), laboratory assessments (including hematology, clinical chemistry, urinalysis, and coagulation), vital signs (systolic and diastolic blood pressure, and pulse rate), electrocardiogram (ECG), and physical examination. AEs were coded using the Medical Dictionary for Regulatory Activities. In Study 1, a treatment‐emergent AE was defined as an AE with onset (start date/time) after the first dose of study drug in the run‐in period (day –7). In Study 2, AEs were recorded from the time the participant signed the informed consent through to the follow‐up visit. ECGs were obtained after the participant rested in the supine position. Digital ECG analysis in Study 1 was performed at the AstraZeneca ECG Center.
(§3) Safety was assessed in the safety analysis set of each study, comprising all participants who received ≥1 dose of study drug. Continuous variables are summarized using descriptive statistics, and categorical variables are summarized as frequency and proportion.

[3] = Study 1 (NCT03836599) safety: adverse events, laboratory, vital signs, ECG; type: in vivo, human; details: Study 1, up to 24 mg verinurad + 300 mg allopurinol
Source text: (§4) Cohort 1 was randomized, double‐blind, and placebo‐controlled and consisted of 12 healthy Asian participants, of whom <50% were Chinese. Cohort 2 was open‐label, consisting of 9 healthy Chinese participants.
as §2, §3

[4] = Study 1 plasma pharmacokinetics of verinurad, allopurinol and oxypurinol; type: in vivo, human; details: for Tmax: median (range); for Cmax / AUC: geometric mean (gCV%)
Method: as §4
(§5) In both studies, participants received verinurad capsules with an extended‐release profile. On the days of pharmacokinetic sampling, treatment was given in fasting state.
Verinurad plasma samples were analyzed using similar methodologies as described by Shen et al.[13] with lower and upper limits of quantification of 0.100 ng/mL and 40.0 ng/mL, respectively.

[5] = design: method as in PMID 29949102; details: cited from earlier work
[6] = Study 2 plasma pharmacokinetics of verinurad; type: in vivo, human; details: healthy non-Asian participants; for Tmax: median (range); for half-life: read-out: t½λz (converted)
Method: as §1, §5
Verinurad plasma samples were analyzed using similar methodologies as described by Shen et al.[13] with lower and upper limits of quantification of 0.100 ng/mL and 40.0 ng/mL, respectively. The ability to dilute overrange samples was also confirmed. […].
(§6) Pharmacokinetics and pharmacodynamics were assessed in all participants who received ≥1 dose of study drug and had ≥1 corresponding assessment.

[7] = test system: serum uric acid (sUA) and urinary uric acid (uUA); test: Study 2 pharmacodynamics: serum and urinary uric acid; type: in vivo, human; details: healthy non-Asian participants
Method: as §1
Key pharmacodynamic parameters included time‐matched percentage change from baseline (day –1) at each timepoint in sUA concentration, maximum observed percentage change from baseline (time‐matched, day –1) in sUA concentration (Emax,CB) and time to Emax,CB, amount of UA recovered in urine (Aeur), and fractional excretion of UA (FEUA).
as §6

[8] = design: method as in PMID 30334639; details: patients with gout, 1 Japanese study and 1 Western study; cited from earlier work
[9] = healthy Japanese male participants, day 6 after QD dosing with 15 mg verinurad modified-release formulation
[10] = multiple-dose assessment, 12 mg verinurad QD (n = 8)
[11] = single-dose assessment, 4.5 mg verinurad (n = 16)
[12] = single-dose assessment, 6 mg verinurad (n = 16)
[13] = single-dose assessment, 12 mg verinurad (n = 16)
[14] = healthy Asian participants, 24 mg verinurad + 300 mg allopurinol QD, Day 7
[15] = healthy Chinese participants, 12 mg verinurad + 300 mg allopurinol day 1 and QD days 3-9, Day 9, arithmetic mean (SD)
[16] = healthy Chinese participants, 12 mg verinurad + 300 mg allopurinol, Day 1, arithmetic mean (SD)
[17] = single dose 15 mg verinurad, moderate renal impairment
[18] = single dose 15 mg verinurad, severe renal impairment
[19] = single dose, mild renal impairment
[20] = multiple-dose assessment 12 mg verinurad QD, Day 7, geometric mean (gCV%)
[21] = single dose 6 mg verinurad, geometric mean (gCV%)
[22] = single dose 12 mg verinurad, geometric mean (gCV%)
[23] = 12 mg verinurad QD, day 1, 3 to 6 h post-dose
[24] = 12 mg verinurad QD, day 7, 3 to 6 h post-dose
[25] = single dose 4.5 mg verinurad, 3 to 6 h post-dose
[26] = single dose 6 mg verinurad, 3 to 6 h post-dose
[27] = single dose 12 mg verinurad, 3 to 6 h post-dose

## CC(C)(Sc1ccncc1-c1ccc(C#N)c2ccccc12)C(=O)O [verinurad]
[1]; after QD doses
  accumulation for AUC: 1.3 fold
  accumulation for Cmax: ~ 1.2 fold
[1]; [9]
  AUCτ: 239 ng·h/mL
  Cmax: 38.2 ng/mL
[2]; human, in vivo
  diarrhea, participants: 2
[2]; in vivo
  findings in laboratory parameters, vital signs, 12-lead ECG variables: No clinically significant findings
[2]; [10]
  Death, Events: 0 Events
  Death, n (%): 0 n (%)
[2]; [11]
  Death, Events: 0 Events
  Death, n (%): 0 n (%)
[2]; [12]
  Death, Events: 0 Events
  Death, n (%): 0 n (%)
[2]; [13]
  Death, Events: 0 Events
  Death, n (%): 0 n (%)
[3]
  tolerability: well tolerated
[4]; healthy Asian participants, 24 mg verinurad + 300 mg allopurinol QD, Day 1, arithmetic mean (SD)
  CL/F: 48.6 (11.3) L/h
[4]; healthy Asian participants, 24 mg verinurad + 300 mg allopurinol QD, Day 1
  Tmax: 5.00 (4.98–6.02) h
[4]; healthy Asian participants, 24 mg verinurad + 300 mg allopurinol QD, Day 7, arithmetic mean (SD)
  CL/F: 50.9 (9.01) L/h
[4]; [14]
  Cmax: 73.6 (29.0) ng/mL
  Tmax: 5.00 (4.00–6.00) h
[4]; [15]
  CL/F: 47.9 (17.2) L/h
  t½λz: 6.27 (0.647) h
[4]; [16]
  CL/F: 43.4 (16.2) L/h
  t½λz: 12.9 (3.08) h
[4]; healthy Chinese participants, 12 mg verinurad + 300 mg allopurinol, Day 1
  Tmax: 5.00 (4.00–6.00) h
[4]; human, plasma, oral, healthy Asian participants, 24 mg verinurad + 300 mg allopurinol QD, Day 1, arithmetic mean (SD), read-out: t½λz (converted)
  half-life: 5.98 h
[4]; human, plasma, oral, healthy Asian participants, 24 mg verinurad + 300 mg allopurinol QD, Day 1, read-out: AUC
  AUC: 506 ng·h/mL
[4]; human, plasma, oral, healthy Asian participants, 24 mg verinurad + 300 mg allopurinol QD, Day 1, read-out: AUCτ
  AUC: 415 ng·h/mL
[4]; human, plasma, oral, healthy Asian participants, 24 mg verinurad + 300 mg allopurinol QD, Day 1, read-out: Cmax
  Cmax: 71.2 ng/mL
[4]; human, plasma, oral, healthy Asian participants, 24 mg verinurad + 300 mg allopurinol QD, Day 7, read-out: AUCτ
  AUC: 478 ng·h/mL
[4]; human, plasma, oral, healthy Chinese participants, 12 mg verinurad + 300 mg allopurinol day 1 and QD days 3-9, Day 9, read-out: AUCτ
  AUC: 264 ng·h/mL
[4]; human, plasma, oral, healthy Chinese participants, 12 mg verinurad + 300 mg allopurinol day 1 and QD days 3-9, Day 9, read-out: Cmax
  Cmax: 42 ng/mL
[4]; human, plasma, oral, healthy Chinese participants, 12 mg verinurad + 300 mg allopurinol day 1 and QD days 3-9, Day 9, read-out: tmax
  Tmax: 5.5 h
[4]; human, plasma, oral, healthy Chinese participants, 12 mg verinurad + 300 mg allopurinol, Day 1, read-out: AUC
  AUC: 295 ng·h/mL
[4]; human, plasma, oral, healthy Chinese participants, 12 mg verinurad + 300 mg allopurinol, Day 1, read-out: AUCτ
  AUC: 226 ng·h/mL
[4]; human, plasma, oral, healthy Chinese participants, 12 mg verinurad + 300 mg allopurinol, Day 1, read-out: Cmax
  Cmax: 47.6 ng/mL
[5]; [17]
  AUC increase compared with normal renal function: 148%
  Cmax increase compared with normal renal function: 73%
[5]; [18]
  AUC increase compared with normal renal function: 130%
  Cmax increase compared with normal renal function: 128%
[5]; [19]
  AUC increase compared with normal renal function: 24%
  Cmax increase compared with normal renal function: 53%
[6]; multiple-dose assessment 12 mg verinurad QD, Day 1, geometric mean (gCV%)
  CL/F: 52.2 (20.2) L/h
[6]; multiple-dose assessment 12 mg verinurad QD, Day 1
  Tmax: 5.00 (2.00–6.00) h
[6]; [20]
  CL/F: 44.2 (27.3) L/h
  t½λz: 10.9 (19.1) h
[6]; single dose 4.5 mg verinurad, geometric mean (gCV%)
  CL/F: 51.8 (27.9) L/h
[6]; single dose 4.5 mg verinurad
  Tmax: 4.00 (2.00–6.00) h
[6]; [21]
  CL/F: 58.8 (40.5) L/h
  Cmax: 13.4 (67.6) ng/mL
[6]; single dose 6 mg verinurad
  Tmax: 4.00 (2.00–6.05) h
[6]; [22]
  CL/F: 58.3 (44.4) L/h
  t½λz: 12.2 (67.7) h
[6]; single dose 12 mg verinurad
  Tmax: 4.00 (2.00–6.00) h
[6]; human, plasma, oral, 4.5 mg, single dose 4.5 mg verinurad, geometric mean (gCV%), read-out: AUC
  AUC: 86.8 ng·h/mL
[6]; human, plasma, oral, 4.5 mg, single dose 4.5 mg verinurad, geometric mean (gCV%), read-out: AUCτ
  AUC: 68.1 ng·h/mL
[6]; human, plasma, oral, 4.5 mg, single dose 4.5 mg verinurad, geometric mean (gCV%), read-out: Cmax
  Cmax: 11.8 ng/mL
[6]; human, plasma, oral, 6 mg, single dose 6 mg verinurad, geometric mean (gCV%), read-out: AUC
  AUC: 102 ng·h/mL
[6]; human, plasma, oral, 6 mg, single dose 6 mg verinurad, geometric mean (gCV%), read-out: AUCτ
  AUC: 80.8 ng·h/mL
[6]; human, plasma, oral, 12 mg, multiple-dose assessment 12 mg verinurad QD, Day 1, geometric mean (gCV%), read-out: AUC
  AUC: 230 ng·h/mL
[6]; human, plasma, oral, 12 mg, multiple-dose assessment 12 mg verinurad QD, Day 1, geometric mean (gCV%), read-out: AUCτ
  AUC: 209 ng·h/mL
[6]; human, plasma, oral, 12 mg, multiple-dose assessment 12 mg verinurad QD, Day 1, geometric mean (gCV%), read-out: Cmax
  Cmax: 29.9 ng/mL
[6]; human, plasma, oral, 12 mg, multiple-dose assessment 12 mg verinurad QD, Day 7, geometric mean (gCV%), read-out: AUCτ
  AUC: 271 ng·h/mL
[6]; human, plasma, oral, 12 mg, multiple-dose assessment 12 mg verinurad QD, Day 7, geometric mean (gCV%), read-out: Cmax
  Cmax: 36.3 ng/mL
[6]; human, plasma, oral, 12 mg, single dose 12 mg verinurad, geometric mean (gCV%), read-out: AUC
  AUC: 206 ng·h/mL
[6]; human, plasma, oral, 12 mg, single dose 12 mg verinurad, geometric mean (gCV%), read-out: AUCτ
  AUC: 168 ng·h/mL
[6]; human, plasma, oral, 12 mg, single dose 12 mg verinurad, geometric mean (gCV%), read-out: Cmax
  Cmax: 28.6 ng/mL
[6]; human, plasma, oral, 12 mg, single dose of verinurad 4.5, 6, or 12 mg, read-out: geometric mean AUCτ, range over doses
  AUC: 68.1 to 168 ng·h/mL
[6]; human, plasma, oral, 12 mg, single dose of verinurad 4.5, 6, or 12 mg, read-out: geometric mean Cmax, range over doses
  Cmax: 11.8 to 28.6 ng/mL
[6]; human, plasma, oral, multiple-dose assessment 12 mg verinurad QD, Day 1, geometric mean (gCV%)
  half-life: 7.15 h
[6]; human, plasma, oral, multiple-dose assessment 12 mg verinurad QD, Day 7, read-out: tmax
  Tmax: 6 h
[6]; human, plasma, oral, single dose 4.5 mg verinurad, geometric mean (gCV%)
  half-life: 12.7 h
[6]; human, plasma, oral, single dose 6 mg verinurad, geometric mean (gCV%)
  half-life: 13.6 h
[7]; 12 mg verinurad QD, Day 1
  tEmax,CB, mean (SD): 9.0 (1.0) hour
[7]; 12 mg verinurad QD, Day 7
  tEmax,CB, mean (SD): 7.0 (3.0) hour
[7]; [23]
  mean Aeur at peak, higher compared with day –1: 353%
  mean FEUA at peak: 33.3%
[7]; [24]
  mean Aeur at peak, higher compared with day –1: 81.3%
  mean FEUA at peak: 31.2%
[7]; single dose 4.5 mg verinurad
  tEmax,CB, mean (SD): 8.0 (2.1) hour
[7]; [25]
  mean Aeur at peak, higher compared with day –1: 219%
  mean FEUA at peak: 21.5%
[7]; single dose 6 mg verinurad
  tEmax,CB, mean (SD): 8.0 (2.0) hour
[7]; [26]
  mean Aeur at peak, higher compared with day –1: 267%
  mean FEUA at peak: 24.8%
[7]; single dose 12 mg verinurad
  tEmax,CB, mean (SD): 9.0 (1.5) hour
[7]; [27]
  mean Aeur at peak, higher compared with day –1: 338%
  mean FEUA at peak: 33.3%
[8]
  verinurad exposure, higher than in Western patients: > 2 fold
